In patent US4452851A, “Cephem compounds” (Fujisawa Pharmaceutical Co., Ltd., priority 1981, dated 1984) one finds dose excreted and MIC data, which are given here for five compounds.

The MIC is the lowest concentration found to suppress growth. Low readings indicate a more susceptible organism, high ones a less susceptible organism.

A short description of data set [1]: Urinary excretion in rats after oral administration. The class given is in vivo. The following applies: rat, 100 mg/kg, 100 mg per Kg, urine 0 to 24 hours, bioassay. The method, then:
The concentration of antibiotic in urine samples were bioassayed with the standard buffer at pH 7.0, and the urinary excretion in 24 hours were calculated.

A short description of the next data set: in vivo. The settings on record: rat, po, 100 mg/kg.
The next data set has as its system Proteus mirabilis 18. Kind of data set: Minimal inhibitory concentration, two-fold agar-plate dilution method. The class given is cell-based. The settings on record: HI-agar, 37° C., 20 hours. The method, then:
(§1) In vitro antibacterial activity was determined by the two-fold agar-plate dilution method as described below. One loopful of an overnight culture of each test strain in Trypticase-soy broth (10^8 viable cells per ml) was streaked on heart infusion agar (HI-agar) containing graded concentrations of representative test compound, and the minimal inhibitory concentration (MIC) was expressed in terms of μg/ml after incubation at 37° C. for 20 hours.

The subject of data set [2] is Escherichia coli NIHJ JC-2. The data set is described as above. The following applies: NIHJJC2, HI-agar, 37° C., 20 hours. The class given is cell-based. Here is the method:
as §1

Data set [3] deals with Proteus vulgaris IAM-1025. The data set is described as above. The settings on record: IAM1025, HI-agar, 37° C., 20 hours. The class given is cell-based. Here is the method:
as §1

The next data set relates to Escherichia coli 31. The data set is described as above. The class given is cell-based. The following applies: HI-agar, 37° C., 20 hours. Here is the method: as §1
A further data set relates to Klebsiella pneumoniae 20. Described as above. The class given is cell-based. The following applies: HI-agar, 37° C., 20 hours. Here is the method:
as §1

Values after ≈ are worked out from the molar mass of the structure shown.

Experimental for in vivo: Rats anesthetized with pentobarbital were fixed in supine position, and a polyethylene cannula was inserted into the bile duct. Bile samples were collected at 0 to 3, 3 to 6, and 6 to 24 hours after oral administration of 100 mg of the test drugs per kg. The antibiotic levels in the bile samples were assyed with the standard solutions prepared with M/15 phosphate buffer (pH 7.0) and the biliary excretion in 24 hours were calculated.

As for `CSC1=C(C(=O)O)N2C(=O)C(NC(=O)/C(=N\OCC(=O)O)c3cscn3)C2SC1` (stereo not drawn) [Test Compound (3), 7-[2-(4-thiazolyl)-2-carboxymethoxyiminoacetamido]-3-methylthio-3-cephem-4-carboxylic acid (syn isomer)], the dose excreted at 24 h came to 48.6% in data set [1] and 25.5% in “in vivo”.

With `CCSC1=C(C(=O)O)N2C(=O)C(NC(=O)/C(=N\OCC(=O)O)c3nsc(N)n3)C2SC1` (stereo not drawn) [(4), 7-[2-(5-amino-1,2,4-thiadiazol-3-yl)-2-carboxymethoxyiminoacetamido]-3-ethylthio-3-cephem-4-carboxylic acid (syn isomer)], the MIC against Proteus mirabilis 18 worked out at 0.2 µg/mL (≈ 0.409 µM); in data set [2], 1.56 µg/mL (≈ 3.19 µM); in data set [3], 0.78 µg/mL (≈ 1.6 µM); in the data set with Escherichia coli 31, 0.2 µg/mL (≈ 0.409 µM); with Klebsiella pneumoniae 20, 0.39 µg/mL (≈ 0.798 µM).

Regarding `CSC1=C(C(=O)O)N2C(=O)C(NC(=O)/C(=N\OCC(=O)O)c3csc(N)n3)C2SC1` (stereo not drawn) [Compound (1), 7-[2-(2-aminothiazol-4-yl)-2-carboxymethoxyiminoacetamido]-3-methylthio-3-cephem-4-carboxylic acid (syn isomer)], the dose excreted at 24 h in data set [1] turned out to be 51.6%; in the data set “in vivo”, 41.1%. Also, the MIC is 0.05 µg/mL (≈ 0.106 µM) with Proteus mirabilis 18; 1.56 µg/mL (≈ 3.29 µM) in data set [2]; 0.39 µg/mL (≈ 0.824 µM) in data set [3]; 0.2 µg/mL (≈ 0.422 µM) against Escherichia coli 31; 0.1 µg/mL (≈ 0.211 µM) with Klebsiella pneumoniae 20.

`CCSC1=C(C(=O)O)N2C(=O)C(NC(=O)/C(=N\OCC(=O)O)c3nc(N)sc3Cl)C2SC1` (stereo not drawn) [Compound (3), 7-[2-(2-amino-5-chlorothiazol-4-yl)-2-carboxymethoxyiminoacetamido]-3-ethylthio-3-cephem-4-carboxylic acid (syn isomer)]: the MIC was 0.05 µg/mL (≈ 0.0958 µM) in the data set on Proteus mirabilis 18; 1.56 µg/mL (≈ 2.99 µM) in data set [2]; 0.1 µg/mL (≈ 0.192 µM) in data set [3]; 0.2 µg/mL (≈ 0.383 µM) against Escherichia coli 31; 0.2 µg/mL (≈ 0.383 µM) with Klebsiella pneumoniae 20.

For `CCSC1=C(C(=O)O)N2C(=O)C(NC(=O)/C(=N\OCC(=O)O)c3csc(N)n3)C2SC1` (stereo not drawn) [Compound (2), 7-[2-(2-aminothiazol-4-yl)-2-carboxymethoxyiminoacetamido]-3-ethylthio-3-cephem-4-carboxylic acid (syn isomer)], the dose excreted at 24 h in data set [1] came to 19.4%; in “in vivo” it was 32.2%. Moreover, the MIC in the data set on Proteus mirabilis 18 was 0.025 µg/mL (≈ 0.0513 µM); in data set [2], 3.13 µg/mL (≈ 6.42 µM); in data set [3], 0.78 µg/mL (≈ 1.6 µM); against Escherichia coli 31, 0.2 µg/mL (≈ 0.41 µM); against Klebsiella pneumoniae 20, 0.1 µg/mL (≈ 0.205 µM).
